Test results from patent publication US20100204202A1, “DRUG FOR ALLEVIATING MOTOR COMPLICATIONS OR PSYCHIATRIC SYMPTOMS OF PARKINSON'S DISEASE” (Asubio Pharma Co., Ltd., priority 2007, published 2010).
Where a name gives a salt, the structure may show the parent alone.

What was measured:
[1] = system: rats; test: Amount of locomotor activity; format: in vivo, rat; conditions: 0.3, 1, and 3 mg/kg i.p.; minutes 0-15
Excerpt: For the test, Crl: CD(SD) male rats supplied by Charles River Japan were used (6 weeks old at start of test). For the forced swimming test, the method of the improved type reported by Lucki et al. (Lucki I., “The forced swimming test as a model for core and component behavioral effects of antidepressant drugs”, Behavioural Pharmacology, 1997, 8, p. 523-532; Cryan J. F. et al., “Assessing antidepressant activity in rodents: recent developments and future needs”, TRENDS in Pharmacological Sciences, 2002, 23, p. 238-245) was used. On day 1, each rat was placed in a cylinder filled with water (height 45 cm×diameter 30 cm, water depth 30 cm, water temperature 23° C., water depth set to depth by which back legs and tail of rat will not touch the bottom). The rat was taken out after 15 minutes. At this time, the immobility period (seconds) of minutes 10-15 (5 minutes) was recorded. Based on the results, the rats were assigned to five groups so that there would be no difference among the groups. On day 2, each rat was placed in a cylinder filled with water the same as day 1 and the immobility period (seconds), swimming behavior period (seconds), and climbing behavior period (seconds) of minutes 0-5 (5 minutes) were measured. […]

[2] = target: T1, rat serotonin 1A receptors (Rattus norvegicus, UniProt P19327); test: Adenylate cyclase inhibition test via rat serotonin 1A receptors (full agonist-partial agonist judgment test), rat hippocampus membranes; format: biochemical
T1 construct: Each rat was decapitated and the hippocampus was quickly removed; from tissue; host or cells: hippocampus of male Wistar rats
T1 sequence (P19327 1-422): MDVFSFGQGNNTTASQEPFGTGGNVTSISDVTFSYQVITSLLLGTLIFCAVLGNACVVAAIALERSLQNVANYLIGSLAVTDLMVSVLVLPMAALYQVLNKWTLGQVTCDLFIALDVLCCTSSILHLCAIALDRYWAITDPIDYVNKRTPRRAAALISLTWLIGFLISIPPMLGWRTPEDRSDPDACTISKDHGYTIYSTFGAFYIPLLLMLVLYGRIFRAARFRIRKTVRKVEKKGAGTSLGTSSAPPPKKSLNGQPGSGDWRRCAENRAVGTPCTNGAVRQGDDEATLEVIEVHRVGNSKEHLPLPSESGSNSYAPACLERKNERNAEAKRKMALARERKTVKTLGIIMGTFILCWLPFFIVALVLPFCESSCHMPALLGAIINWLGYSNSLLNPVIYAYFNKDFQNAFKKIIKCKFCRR
Protocol: For the test, Wistar male rats supplied by Shimizu Laboratory Supplies were used (9 to 15 weeks old). Each rat was decapitated and the hippocampus was quickly removed. It was homogenized in 10 volumes of buffer (i.e., 25 mM Tris-HCl, 1 mM EGTA, 5 mM EDTA, 5 mM DTT, 300 mM sucrose, 100 KIU/ml aprotinin, pH 7.4). This was then centrifuged at 500×g, 4° C. for 5 minutes, the supernatant was further centrifuged at 39,000×g, 4° C. for 10 minutes, and the residue was used as the rat hippocampus membrane specimen. The rat hippocampus membrane specimen was diluted by a buffer to 20 to 90 μg/mL of protein, then 50 μL of this cell membrane suspension was added to a 200 μL assay buffer containing each test sample (25 mM Tris-HCl, 100 mM NaCl, 2 mM MgCl2. 0.25 mM ATP, 5 mM phosphocreatine, 10 μg/mL creatine phosphokinase, 0.2 mM IBMX, 10 μM GTP, 10 μM forskolin, pH 7.4) and allowed to react at 30° C. for 5 minutes. 0.2N HCl was added in 250 μL to stop the reaction, then the cAMP produced was assayed by the radioimmunoassay method. […] Note that the adenylate cyclase activity was measured using as an indicator the amount of cAMP produced by the same enzyme. The rate of inhibition by the serotonin 1A receptor agonist was found using the amount of production due to forskolin (10 μM) stimulus as 100%.

[3] = Rate of biological utilization of SUN N4057 in rats; format: in vivo, rat
Protocol: Note that the rate of biological utilization of SUN N4057 in the rats, with subcutaneous administration, was a good one of about 100%, but with intraperitoneal administration, was a low one of about 27%. Further, it became clear that this quickly was consumed peaking at 15 minutes after administration. For this reason, in intraperitoneal administration, a higher dosage was set than with subcutaneous administration.

For O=C1c2ccccc2OC=C(Cl)N1CCCCN1CC=C(c2ccccn2)CC1 [SUN N4057, 3-chloro-4,5-dihydro-4-{4-[4-(2-pyridyl)-1,2,3,6-tetrahydropyridin-1-yl]butyl}-1,4-benzoxazepin-5-one.dihydrochloride-dihydrate], the “amount of locomotor activity” value [1] was “no significant change”, the IC50 ([2]; forskolin (10 μM) stimulated, rat hippocampus membranes, read-out: IC50 of adenylate cyclase inhibition (for the maximum reaction)) was 2.67 nM and the inhibition ([2]; forskolin (10 μM) stimulus = 100%, rat hippocampus membranes, read-out: maximum inhibitory reaction of adenylate cyclase activity) was 20%. The “full agonist-partial agonist judgment” value ([2]; serotonin 1A receptors of the serotonin nerve post-synapse membrane) was “partial agonist”, the “rate of biological utilization” value ([3]; intraperitoneal administration) was “about 27%” and the “time of peak after administration” value ([3]; intraperitoneal administration) was 15 min. For the same compound, the “rate of biological utilization” value ([3]; subcutaneous administration) was “about 100%”.
